Data: patent US10278965B2, “Method of detecting cancer stem cell, method of screening cancer stem cell, and method of inhibiting cancer stem cell” (CANON KABUSHIKI KAISHA, priority 2012, dated 2019)

How the values were obtained:
[1] = Measurement of fluorescent property of compound; format: physicochemical; conditions: 5 μM DMSO solution
Protocol: The excitation wavelength and fluorescence wavelength of the compound were measured by a FL4500 spectrofluorometric measuring machine manufactured by Hitachi High-Technologies Corporation.

[2] = tested on: Prostatic cancer cells, PC-3; assay: Cancer cell inhibitory (growth suppressive) action against prostatic cancer cells, CellTiter-Glo viable cell count; format: cell-based; conditions: PC-3, 10 μg/mL, 24 hours
Protocol: Prostatic cancer cells, PC-3, were pre-cultured in RPMI1640 medium containing 10% FBS at 37° C. in a 5% CO2 ambient. Thereafter, 4,000 cells were seeded per well of a 96-well plate and further cultured for 24 hours. Subsequently, Compound (1) was added to the medium so as to obtain a final concentration of 10 μg/mL and cultured at 37° C. for 24 hours in a 5% CO2 ambient. The cultured cells were analyzed for viable cell count according to Cell Titer-Glo Luminescent Cell Viability Assay (manufactured by Promega KK.).
Viable cell count was analyzed in the same manner as in Experimental Example 24 except that Compound (1) of Experimental Example 24 was changed to each compound shown in Table 2.
Viable cell count was analyzed in the same manner as in Experimental Example 24 except that Compound (1) of Experimental Example 24 was changed to each of Comparative compounds 1 to 4, to obtain growth rates.
Note that the growth rate used in Examples refers to the rate (expressed by percentage) of viable cell count after culture relative to the number of cells at the initiation of cell culture. Evaluation criteria are the same as in the above experiments.

[3] = tested on: Human chronic myelocytic leukemia cells, K562, ALDH (+) fraction (cancer stem cells); assay: Cancer stem-cell selective inhibitory action against chronic myelocytic leukemia cells, ALDH (+) fraction; format: cell-based; conditions: 24 hours; for ALDH(+) Superiority evaluation / ALDH(+)/ALDH(−): K562, 10 μg/ml; for ALDH(+) growth rate / Growth suppression evaluated: K562 ALDH(+), 10 μg/ml
Protocol: (§1) Human chronic myelocytic leukemia cells, K562, were pre-cultured in RPMI1640 medium containing 10% FBS at 37° C. in a 5% CO2 ambient. Then, a fraction containing 80% or more of cancer stem cells was extracted by use of a cancer stem cell marker, ALDEFLUOR reagent (manufactured by VERITAS Corporation) and FACSAria flow cytometry (manufactured by Nippon Becton, Dickinson and Company). […] The cultured cells were analyzed for viable cell count according to CellTiter-Glo Luminescent Cell Viability Assay (manufactured by Promega KK.). […] Note that hereinafter, an ALDEFLUOR reagent positive fraction (deemed as cancer stem cells) is represented by ALDH (+), whereas an ALDEFLUOR reagent negative fraction (not deemed as cancer stem cells) is represented by ALDH (−), in some cases.
(§2) Further, the growth suppressive effect of cancer stem cells was evaluated based on the following criteria. Note that the growth rate in Examples is a value obtained by dividing viable cell count after culture by the number of cells at the initiation time of culture.

[4] = tested on: Human pancreas cancer cells, KLM-1; assay: Cancer cell inhibitory (growth suppressive) action against pancreatic cancer cells, CellTiter-Glo viable cell count; conditions: KLM-1, 10 μg/mL, 24 hours
Protocol: Human pancreas cancer cells, KLM-1, were pre-cultured in RPMI1640 medium containing 10% FBS at 37° C. in a 5% CO2 ambient. Thereafter, 4,000 cells were seeded per well of a 96-well plate and further cultured for 24 hours. […] The cultured cells were analyzed for viable cell count according to CellTiter-Glo Luminescent Cell Viability Assay (manufactured by Promega KK.).
Evaluation of cancer cell inhibition against the pancreatic cancer cells (KLM-1) (growth suppression) was made based on the following criteria. Note that the growth rate used in Examples refers to the rate (expressed by percentage) of viable cell count after culture relative to the number of cells at the initiation of cell culture.

[5] = tested on: Human chronic myelocytic leukemia cells, K562, ALDH (−) fraction (general cancer cells); assay: Cancer stem-cell selective inhibitory action against chronic myelocytic leukemia cells, ALDH (−) fraction; format: cell-based; conditions: K562 ALDH(−), 10 μg/ml, 24 hours
Protocol: as §1, §2

Excitation wavelength λex [1] [nm] | Fluorescence wavelength λem [1] [nm] | SMILES | Cancer cell growth rate (%) [2] [%] | Evaluation (cancer cell growth rate) [2] | ALDH(+) Superiority evaluation [3] | ALDH(+)/ALDH(−) [3] | Cancer cell growth rate (%) [4] [%] | Evaluation (cancer cell growth rate) [4] | ALDH(−) growth rate [5] | ALDH(+) growth rate [3] | Growth suppression evaluated [3]
354 | 469 | CCN1/C(=C\C(C)=C\c2sc3c4ccccc4ccc3[n+]2CC)Sc2c1ccc1ccccc21 [Compound 11] | 4.3 | A (Cancer cell growth rate is less than 20%) |  |  | 5.0 | A (Cancer cell growth rate is less than 20%) |  |  | 
491 | 510 | CCN1/C(=C\C=C\c2oc3ccccc3[n+]2CC)Oc2ccccc21 [Compound 14] |  |  | A (The value of the growth rate of ALDH (+)/the growth rate of ALDH (−) is less than 0.8) | 0.77 |  |  | 0.49 | 0.38 | A (The growth rate of ALDH (+) is less than 0.5)
553 | 570 | CCN1/C(=C\C=C\C2=[N+](CC)c3ccccc3C2(C)C)C(C)(C)c2ccccc21.[I-] [Compound 22] |  |  | A (The value of the growth rate of ALDH (+)/the growth rate of ALDH (−) is less than 0.8) | 0.75 |  |  | 0.29 | 0.22 | A (The growth rate of ALDH (+) is less than 0.5)
650 | 675 | CCCN1\C(=C/C=C/C=C/C2=[N+](CCC)c3ccccc3C2(C)C)C(C)(C)c2ccccc21 [Compound 27] | 7.7 | A (Cancer cell growth rate is less than 20%) | A (The value of the growth rate of ALDH (+)/the growth rate of ALDH (−) is less than 0.8) | 0.56 | 6.0 | A (Cancer cell growth rate is less than 20%) |  |  | 
638 | 661 | CCN1C=C/C(=C/C=C/c2sc3ccccc3[n+]2CC)c2ccccc21.[I-] [Compound 34] |  |  | A (The value of the growth rate of ALDH (+)/the growth rate of ALDH (−) is less than 0.8) | 0.72 | 26.6 | B (Cancer cell growth rate is 20% or more and less than 50%) | 0.67 | 0.48 | A (The growth rate of ALDH (+) is less than 0.5)
797 | 816 | CCCCN1/C(=C/C=C2\CCCC(/C=C/C3=[N+](CCCC)c4ccccc4C3(C)C)=C2Cl)C(C)(C)c2ccccc21 [Compound 43] | 12.3 | A (Cancer cell growth rate is less than 20%) |  |  | 35.6 | B (Cancer cell growth rate is 20% or more and less than 50%) |  |  | 
679 | 715 | CCN1C=C/C(=C/C=C/c2cc[n+](CC)c3ccccc23)c2ccccc21 [Compound 46] | 17.7 | A (Cancer cell growth rate is less than 20%) |  |  | 16.7 | A (Cancer cell growth rate is less than 20%) |  |  | 
830 | 831 | CN1/C(=C/C=C2\CCCC(/C=C/C3=[N+](C)c4ccc5ccccc5c4C3(C)C)=C2Cl)C(C)(C)c2c1ccc1ccccc21 [Compound 49] | 5.3 | A (Cancer cell growth rate is less than 20%) |  |  | 12.0 | A (Cancer cell growth rate is less than 20%) |  |  | 

The next lines start with the molecule.

SMILES | Excitation wavelength λex [1] [nm] | Fluorescence wavelength λem [1] [nm] | Cancer cell growth rate (%) [2] [%] | Evaluation (cancer cell growth rate) [2] | ALDH(+) Superiority evaluation [3] | ALDH(+)/ALDH(−) [3] | Cancer cell growth rate (%) [4] [%] | Evaluation (cancer cell growth rate) [4] | ALDH(−) growth rate [5] | ALDH(+) growth rate [3] | Growth suppression evaluated [3]
CCN1/C(=C\C=C\c2sc3ccccc3[n+]2CC)Sc2ccccc21 [Compound 1] | 485 | 575 | 13.8 | A (Cancer cell growth rate is less than 20%) | B (The value of the growth rate of ALDH (+)/the growth rate of ALDH (−) is 0.8 or more and less than 0.95) | 0.87 | 31.9 | B (Cancer cell growth rate is 20% or more and less than 50%) |  |  | 
CCN1/C(=C\C(C)=C\c2sc3ccccc3[n+]2CC)Sc2ccccc21 [Compound 5] | 560 | 628 | 15.0 | A (Cancer cell growth rate is less than 20%) | A (The value of the growth rate of ALDH (+)/the growth rate of ALDH (−) is less than 0.8) | 0.79 | 6.4 | A (Cancer cell growth rate is less than 20%) |  |  | 
CCC(=C\c1sc2c3ccccc3ccc2[n+]1CC)/C=C1/Sc2c(ccc3ccccc23)N1CC.[I-] [Compound 7] | 344 | 381 | 15.3 | A (Cancer cell growth rate is less than 20%) |  |  | 13.0 | A (Cancer cell growth rate is less than 20%) |  |  | 
CCN1/C(=C/C=C/C=C/C=C/c2oc3ccccc3[n+]2CC)Oc2ccccc21 [Compound 33] |  |  |  |  | B (The value of the growth rate of ALDH (+)/the growth rate of ALDH (−) is 0.8 or more and less than 0.95) | 0.84 |  |  | 1.00 | 0.83 | B (The growth rate of ALDH (+) is 0.5 or more and less than 0.95)
CCN1/C(=C\C=C\c2ccc3ccccc3[n+]2CC)C=Cc2ccccc21.[I-] [Compound 47] | 615 | 637 | 13.8 | A (Cancer cell growth rate is less than 20%) |  |  | 8.6 | A (Cancer cell growth rate is less than 20%) |  |  | 
CCN1/C(=C/C=C2\CCCC(/C=C/C3=[N+](CC)c4ccc(OC)cc4C34CCCCC4)=C2Oc2ccc(C(c3ccccc3)c3ccccc3)cc2)C2(CCCCC2)c2cc(OC)ccc21 [Compound 58] |  |  |  |  | B (The value of the growth rate of ALDH (+)/the growth rate of ALDH (−) is 0.8 or more and less than 0.95) | 0.82 |  |  | 0.85 | 0.70 | B (The growth rate of ALDH (+) is 0.5 or more and less than 0.95)
